± gives the expanded uncertainty stated by the source.
Assay: mn = molality of the nth substance listed, in mol/kg
Details: 101 kPa, Liquid

NC(CO)(CO)CO [2-amino-2-(hydroxymethyl)-1,3-propanediol] + O
mass density [kg/m3]
Details | m1 = 1.667 | m1 = 2.294 | m1 = 2.945 | m1 = 3.66 | m1 = 4.271 | m1 = 4.908 | m1 = 5.586
298.15 K | 1043.81 ± 1.5 | 1053.88 ± 1.7 | 1065.01 ± 1.8 | 1077.08 ± 2 | 1086.34 ± 2.1 | 1098.03 ± 2.2 | 1106.97 ± 2.3
303.15 K | 1042.04 ± 1.5 | 1052.01 ± 1.6 | 1063.04 ± 1.8 | 1075.01 ± 1.9 | 1084.19 ± 2 | 1095.81 ± 2.2 | 1104.68 ± 2.3
310.15 K | 1039.3 ± 1.5 | 1049.14 ± 1.6 | 1060.05 ± 1.8 | 1071.88 ± 1.9 | 1080.98 ± 2 | 1092.51 ± 2.1 | 1101.29 ± 2.3
318.15 K | 1035.79 ± 1.4 | 1045.51 ± 1.6 | 1056.29 ± 1.7 | 1068.02 ± 1.9 | 1077.02 ± 2 | 1088.46 ± 2.1 | 1097.18 ± 2.2
323.15 K | 1033.4 ± 1.4 | 1043.01 ± 1.5 | 1053.79 ± 1.7 | 1065.43 ± 1.8 | 1074.4 ± 1.9 | 1085.8 ± 2.1 | 1094.46 ± 2.2
328.15 K | 1030.82 ± 1.4 | 1039.97 ± 1.5 | 1051.16 ± 1.6 | 1062.67 ± 1.8 | 1071.63 ± 1.9 | 1083.04 ± 2 | 1091.67 ± 2.1

O=S(=O)(O)CCCCNC(CO)(CO)CO [N-tris(Hydroxymethyl)methyl-4-aminobutanesulfonic acid] + O
mass density [kg/m3]
Details | m1 = 0.9378 | m1 = 1.552 | m1 = 2.487 | m1 = 4.08 | m1 = 4.796 | m1 = 5.154 | m1 = 5.549
298.15 K | 1067.23 ± 0.94 | 1100.73 ± 1.2 | 1143.55 ± 1.4 | 1200.45 ± 1.8 | 1218.48 ± 2 | 1228.57 ± 2 | 1235.88 ± 2.1
303.15 K | 1065.48 ± 0.92 | 1098.86 ± 1.1 | 1141.42 ± 1.4 | 1198.12 ± 1.8 | 1216.1 ± 1.9 | 1226.17 ± 2 | 1233.46 ± 2.1
310.15 K | 1062.76 ± 0.91 | 1095.93 ± 1.1 | 1138.29 ± 1.4 | 1194.76 ± 1.8 | 1212.71 ± 1.9 | 1222.74 ± 2 | 1229.98 ± 2
318.15 K | 1059.29 ± 0.89 | 1092.31 ± 1.1 | 1134.48 ± 1.4 | 1190.76 ± 1.8 | 1208.68 ± 1.9 | 1218.68 ± 2 | 1225.89 ± 2
323.15 K | 1056.9 ± 0.87 | 1089.87 ± 1.1 | 1131.99 ± 1.4 | 1188.17 ± 1.8 | 1206.07 ± 1.9 | 1216.06 ± 2 | 1223.25 ± 2
328.15 K | 1054.08 ± 0.85 | 1086.99 ± 1.1 | 1129.4 ± 1.4 | 1185.52 ± 1.8 | 1203.41 ± 1.9 | 1213.41 ± 1.9 | 1220.58 ± 2

From the NIST ThermoML archive (doi:10.1021/je900260g)
